Source: patent US20230174523A1, “BENZENESULFONAMIDE DERIVATIVES AS TRAP1 MODULATORS AND USES THEREOF” (Amathus Therapeutics, Inc., priority 2020, published 2023)
pEC50: −log10 of the molar value.

Key:
[1] = system: primary rat TH+ dopaminergic neurons; test: Survival, neurite network, CytC release and aSyn aggregation of TH+ dopaminergic neurons injured with MPP+; type: cell-based
Procedure: Rat dopaminergic neurons were cultured as described by Visanji et al., 2008. Briefly, pregnant female rat of 15 days of gestation are sacrificed using a deep anesthesia with CO2 chamber and a cervical dislocation. The midbrains obtained from 15-day-old rat embryos are dissected under a microscope. The embryonic midbrains are removed and placed in ice-cold medium of Leibovitz (L15) containing 2% of Penicillin-Streptomycin (PS) and 1% of bovine serum albumin (BSA). The ventral portion of the mesencephalic flexure, a region of the developing brain rich in dopaminergic neurons, is used for the cell preparations.
The midbrains are dissociated by trypsinisation for 20 min at 37° C. (solution at a final concentration of 0.05% trypsin and 0.02% EDTA). […] Viable cells are counted in a Neubauer cytometer using the trypan blue exclusion test. […] Six wells per condition are assessed.
For each condition, 20 pictures at 10× magnification (plate 1) or 30 pictures at 20× magnification (representing the whole well area) were automatically taken using ImageXpress®. […] The following read-outs were measured: Analysis of total number of TH neurons (TH positive neuron number), Analysis of the ROS into TH positive neurons, Analysis of caspase 3 positive TH neurons, and Analysis of total neurite network of TH positive neurons (in μm).
All values are expressed as mean+/−SEM (standard error of the mean). […]

[2] = target: T1, TRAP1 enzyme (Homo sapiens, UniProt Q12931); test: ADP Glo assay of TRAP1 ATPase activity; type: biochemical
T1 sequence (Q12931 60-704): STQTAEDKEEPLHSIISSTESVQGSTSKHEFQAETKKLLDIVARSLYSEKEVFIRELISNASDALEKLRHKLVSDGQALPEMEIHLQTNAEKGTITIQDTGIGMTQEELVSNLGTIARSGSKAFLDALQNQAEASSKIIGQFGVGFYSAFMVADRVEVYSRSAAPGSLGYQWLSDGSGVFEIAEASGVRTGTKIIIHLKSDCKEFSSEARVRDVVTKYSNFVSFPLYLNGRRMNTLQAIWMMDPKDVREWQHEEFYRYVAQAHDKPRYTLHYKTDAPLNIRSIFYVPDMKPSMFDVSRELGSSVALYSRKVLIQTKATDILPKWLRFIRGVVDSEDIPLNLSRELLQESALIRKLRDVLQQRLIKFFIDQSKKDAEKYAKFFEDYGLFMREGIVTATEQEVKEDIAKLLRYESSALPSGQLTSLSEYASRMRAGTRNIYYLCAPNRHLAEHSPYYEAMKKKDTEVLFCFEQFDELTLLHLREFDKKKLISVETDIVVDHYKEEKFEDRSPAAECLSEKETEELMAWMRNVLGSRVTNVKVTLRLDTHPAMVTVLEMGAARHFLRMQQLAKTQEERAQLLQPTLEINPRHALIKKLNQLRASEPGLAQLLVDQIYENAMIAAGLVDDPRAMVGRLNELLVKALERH
How it was run: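 150 nM TRAP1 preincubated with compound (0.79–100 μM) 30 min at 37° C in Pipes pH 7.5 buffer (0.05 mM MgCl2, 40 mM KCl), then 20 μM ATP added for 60 min at 37° C. ADP quantified by ADP-Glo luminescence against ATP/ADP standard curve. Emax and EC50 from sigmoidal fit.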

pEC50 ([2]; TRAP1 ATPase activation, 150 nM Trap1, 20 μM ATP, geometric mean, read-out: ADP GLO DRC: GeoMean EC50): 4.70 to 5.00
Emax ([2]; read-out: ADP GLO DRC: Mean Emax): 160 to 199%
SMILES: Cc1nn(C)c2sc(C(=O)Nc3ccc(F)c(S(=O)(=O)Nc4ccc(Cl)cc4)c3)cc12 [Compound 705]
neurite network of TH+ dopaminergic neurons ([1]; injury with MPP+ (4 μM, 24 h), FIG. 8): protection of the neurite network
neurite network of TH+ dopaminergic neurons ([1]; injury with MPP+ (4 μM, 48 h), FIG. 11): protection of neurite network
